Laboratory results reported in publication PMC9457533, “Study on Metronidazole Acid-Base Behavior and Speciation with Ca^2+ for Potential Applications in Natural Waters” (Molecules, 2022).

Tests used:
[1] = set-up: method as in PMID 23380153; details: 25 °C, I = 0.2 mol L^-1 in NaCl, water-ethanol (90:10, v/v), potentiometric titrations; cited from earlier work
[2] = Dependence of Ca^2+-MNZ formation constant on ionic strength (Debye-Hückel type equation); format: physicochemical; details: Ca + L + H = CaLH, t = 25 °C, NaCl
Excerpt: The choice to carry out the experiments at various ionic strengths made it possible to study the dependence of the values of the protonation and formation constants on the ionic strength, expressed by a Debye-Hückel type equation, reported below: (5) logβ=logβ^T − 0.51 z* I/1 + 1.5 I + CI where β^T is the protonation constant at infinite dilution, z* is the parameter that refers to the charges present in the solution corresponding to ∑z^2reagents − ∑z^2products, and C refers to the empirical parameter that depends on the stoichiometric coefficients and on the charges. Using Equation (5) and equilibrium constants at various ionic strength values, the formation constants extrapolated to I = 0 mol L^−1, together with the empirical parameter C, were obtained.
The protonation constant of MNZ (L), formation constant values of Ca^2+(M)-MNZ (L), and titration parameters (analytical concentration of the reagents, standard potential E^0, junction potential) were determined by using BSTAC and STACO programs. LIANA program has provided the parameters characterizing the dependence of the protonation and formation constant values on the temperature and ionic strength. […] The speciation diagrams and the formation percentage of the species are determined by the Hyss program.

[3] = 1H NMR titrations: protonation constants of MNZ; format: physicochemical; details: t = 25 °C, I = 0.15 mol L^-1
Experimental: The acid-base behavior of the ligand was also investigated by ^1H NMR. Various spectroscopic titrations were therefore carried out on solutions containing L to determine the values of the chemical shifts, and to refine the protonation constant values. The ^1H NMR spectra, shown in Figure 5 at various pH values and t = 25 °C, show four distinct signals: a singlet associated with CH3 protons, two triplets related to the protons of the two CH2, indicated as CH2a and CH2b, and a singlet of the CH proton present in the imidazole ring. An upfield of 0.3 ppm of the CH chemical shift can be observed as a consequence of the deprotonation of the imidazole group for the pH increase. A similar behavior can be observed for the CH3 in which the chemical shift is 0.2 ppm. […] Furthermore, M-L solutions were analyzed by ^1H NMR at t = 25 °C and I = 0.15 mol L^−1, using a procedure already employed for other systems. The experimental spectra were reported in the Supplementary Materials.
NMR measurements were performed by Varian 500 NMR spectrometer. The ^1H NMR spectra were recorded using 90% H2O and 10% D2O as solvent and the chemical shifts were referred to the 1,4-dioxane signal (δCHdioxane = 3.7 ppm). […] Ca^2+-L spectra were recorded at the same conditions of ionic strength, temperature, and pH range of the free ligand. […]

In the case of Cc1ncc([N+](=O)[O-])n1CCO [MNZ, 2-Methyl-5-nitroimidazole-1-ethanol], the “logK1 (protonation constant)” value [1] is given as 18.1, the “logK2 (protonation constant)” value [1] is given as 7.01 and the “logK3 (protonation constant)” value [1] is given as 2.64. For the same molecule, the “C (empirical parameter for dependence on ionic strength, Equation (5))” value [2] was 1.0(2), the “log^Tβ (constant at infinite dilution)” value ([2]; extrapolated to I = 0 mol L^-1) was 15.0(2) and the “logβ H-NMR” value ([3]; L + 2H = LH2) was 14.13(1). The “logβ H-NMR” value ([3]; L + H = LH) was 11.81(1) ^1.
